Data published in patent US20130197032A1, “[…] COMPOUNDS FOR THE TREATMENT OF NEUROLOGICAL AND […] DISORDERS” (A. CARLSSON RESEARCH AB, priority 2010, published 2013).
Read-outs that look alike come from different tables or passages of the source.

Columns and labels:
human 5-HT1D receptor = target: T1, human 5-HT1D receptor (Homo sapiens, UniProt P28221); assay: R-SAT assay 5-HT1D; type: cell-based; details: Table 3, 5-HT1D; for Eff (%): percent response of reference 5-CT
T1 construct: expressed in transfected cells; host or cells: NIH/3T3

[1] = target: T2, human 5-HT2C(vgv) receptor (Homo sapiens, UniProt P28335, I156V/I160V/N158G); assay: R-SAT assay 5-HT2C; type: cell-based; details: Table 3, 5-HT2C; for EC50: negative logarithm of EC50 in molar; for Eff (%): percent response of reference 5-CT
T2 construct: expressed in transfected cells; host or cells: NIH/3T3
T2 sequence (P28335 33-458 I156V/N158G/I160V): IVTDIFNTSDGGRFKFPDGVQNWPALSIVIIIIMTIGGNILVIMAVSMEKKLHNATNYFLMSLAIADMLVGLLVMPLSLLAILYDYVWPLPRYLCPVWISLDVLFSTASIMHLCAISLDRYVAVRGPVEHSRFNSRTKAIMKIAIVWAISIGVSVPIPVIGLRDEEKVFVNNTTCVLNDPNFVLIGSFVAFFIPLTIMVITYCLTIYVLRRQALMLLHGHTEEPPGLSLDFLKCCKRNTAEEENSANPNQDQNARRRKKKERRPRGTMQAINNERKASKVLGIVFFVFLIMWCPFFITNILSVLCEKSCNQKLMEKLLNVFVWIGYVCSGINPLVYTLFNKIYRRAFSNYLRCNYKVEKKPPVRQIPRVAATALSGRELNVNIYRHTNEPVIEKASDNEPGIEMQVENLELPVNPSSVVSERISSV

human H1 receptor = target: T3, human H1 receptor (Homo sapiens, UniProt P35367); assay: R-SAT assay H1; type: cell-based; details: Table 3, H1; percent response of reference Histamine
T3 construct: expressed in transfected cells; host or cells: NIH/3T3

human M4 receptor = target: T4, human M4 receptor (Homo sapiens, UniProt P08173); assay: R-SAT assay M4; type: cell-based; details: Table 3, M4; percent response of reference Carbachol
T4 construct: expressed in transfected cells; host or cells: NIH/3T3
T4 sequence (P08173 1-479): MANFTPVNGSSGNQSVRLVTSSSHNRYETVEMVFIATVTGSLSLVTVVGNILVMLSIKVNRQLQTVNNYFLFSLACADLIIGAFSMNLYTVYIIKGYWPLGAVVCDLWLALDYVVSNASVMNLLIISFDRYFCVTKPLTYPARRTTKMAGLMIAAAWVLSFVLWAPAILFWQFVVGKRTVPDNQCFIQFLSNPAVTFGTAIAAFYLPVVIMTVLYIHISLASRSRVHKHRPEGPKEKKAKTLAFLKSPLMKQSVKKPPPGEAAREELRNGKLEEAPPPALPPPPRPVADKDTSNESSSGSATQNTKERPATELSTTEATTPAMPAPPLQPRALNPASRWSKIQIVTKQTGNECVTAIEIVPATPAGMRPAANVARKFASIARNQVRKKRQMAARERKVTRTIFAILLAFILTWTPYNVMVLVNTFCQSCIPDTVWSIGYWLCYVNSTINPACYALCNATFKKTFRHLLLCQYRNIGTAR

human alpha1B receptor = target: T5, human alpha1B receptor (Homo sapiens, UniProt P35368); assay: R-SAT assay α1B; type: cell-based; details: Table 3, α1B; percent response of reference Phenylephrine
T5 construct: expressed in transfected cells; host or cells: NIH/3T3 cells, transient transfection, pSI vector
T5 sequence (P35368 1-520): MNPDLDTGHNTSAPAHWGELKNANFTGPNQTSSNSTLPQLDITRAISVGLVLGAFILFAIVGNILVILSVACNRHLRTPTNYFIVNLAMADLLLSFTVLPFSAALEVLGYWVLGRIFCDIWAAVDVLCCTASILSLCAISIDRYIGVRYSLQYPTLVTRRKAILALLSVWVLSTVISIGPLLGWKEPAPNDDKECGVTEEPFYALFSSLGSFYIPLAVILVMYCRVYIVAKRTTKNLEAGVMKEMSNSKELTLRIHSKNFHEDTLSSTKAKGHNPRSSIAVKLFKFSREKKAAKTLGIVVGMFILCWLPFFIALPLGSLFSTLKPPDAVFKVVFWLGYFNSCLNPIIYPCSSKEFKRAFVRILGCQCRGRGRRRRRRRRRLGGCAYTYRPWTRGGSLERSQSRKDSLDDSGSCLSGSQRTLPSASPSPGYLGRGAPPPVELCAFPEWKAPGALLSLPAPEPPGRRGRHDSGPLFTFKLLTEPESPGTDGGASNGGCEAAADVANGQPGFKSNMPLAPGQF

human alpha2A receptor = target: T6, human alpha2A receptor (Homo sapiens, UniProt P08913); assay: R-SAT assay α2A; type: cell-based; details: Table 3, α2A; percent response of reference UK 14,306
T6 construct: expressed in transfected cells; host or cells: NIH/3T3 cells, transient transfection, pSI vector

[2] = target: human serotonin transporter (SERT) (Homo sapiens, UniProt P31645); details: displacement of 3H-Imipramine
Method: (§1) Cells were not centrifuged following cell scraping, but were collected directly into the ice-cold nitrogen cavitation chamber.
(§2) Membranes were prepared as described above. […] Binding reactions were terminated by filtration through UniFilter-96GF/B filters (from Perkin-Elmer, presoaked with 0.1% polyethylenimine for 1 h) with a Brandel 96-well harvester. Filters were washed with ice-cold wash buffer (50 mM Tris, 120 mM NaCl, pH7.4; 500 ml/plate) and then allowed to air-dry for 30 min. 50 μl MacrosScint-20 scintillation cocktail was added to each well, the plates were sealed, and then counted on a Top-Count (Packard).

human 5-HT2A receptors [3] = target: T7, human 5-HT2A receptors (Homo sapiens, UniProt P28223); assay: Phosphatidyl inositol (PI) hydrolysis assay at 5-HT2A; type: cell-based; set-up: expressed in transfected cells; details: mean ± SEM; for EC50: negative logarithm of EC50 in molar (M), HEK 293T cells, read-out: PI Hydrolysis pEC50 (converted); for PI Hydrolysis Eff (%): percent response of reference ligand 5-HT
Method: After lysing the cells with 50 μl of 0.1M formic acid, 20 μl each cell lysate was mixed with 80 μl (1 mg) RNA Binding YSi-SPA beads (GE Healthcare, Chalfont St. Giles, UK) on PICO plates (PerkinElmer) and counted on a TopCount (Packard).
Each curve is representative of at least three or more independent experiments.

[4] = target: human dopamine transporter (DAT) (Homo sapiens, UniProt Q01959); assay: Equilibrium radioligand binding to DAT; details: displacement of 125I-RTI-55
Method: as §1, §2

human 5-HT2A receptors [5] = target: T7, human 5-HT2A receptors; assay: R-SAT functional assay at 5-HT2A; type: cell-based; set-up: expressed in transfected cells; host or cells: NIH-3T3; details: for R-SAT Eff(%): percent response of reference ligand 5-CT; for Eff (%): percent response of reference 5-CT; for potency at 5-HT2A receptors compared with D2 receptors: comparison of Table 1 and Table 2
D2 receptors = D2 receptors (Homo sapiens, UniProt P14416); assay: R-SAT functional assay at D2; type: cell-based; set-up: expressed in transfected cells; host or cells: NIH-3T3; details: for R-SAT Eff(%): percent response of reference ligand pergolide
[6] = Table 1, negative logarithm of EC50 in molar (M), NIH3T3 cells, mean ± SEM, read-out: R-SAT pEC50 (converted)
[7] = Table 3, 5-HT2A, negative logarithm of EC50 in molar, read-out: pEC50 (converted)

Sequence of D2 receptors (P14416 1-414 isoform P14416-2): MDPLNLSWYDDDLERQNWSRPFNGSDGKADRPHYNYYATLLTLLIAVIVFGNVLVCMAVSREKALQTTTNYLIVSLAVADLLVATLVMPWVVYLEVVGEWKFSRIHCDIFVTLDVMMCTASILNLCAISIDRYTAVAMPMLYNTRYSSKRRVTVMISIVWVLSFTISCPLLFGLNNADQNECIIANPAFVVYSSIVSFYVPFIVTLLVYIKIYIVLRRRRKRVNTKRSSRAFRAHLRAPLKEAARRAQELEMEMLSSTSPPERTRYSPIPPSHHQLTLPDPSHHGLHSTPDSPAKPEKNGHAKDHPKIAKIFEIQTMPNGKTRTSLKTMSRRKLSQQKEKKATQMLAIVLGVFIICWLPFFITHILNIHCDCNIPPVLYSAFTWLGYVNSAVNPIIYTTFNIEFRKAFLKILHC
T7 sequence (P28223 whole entry): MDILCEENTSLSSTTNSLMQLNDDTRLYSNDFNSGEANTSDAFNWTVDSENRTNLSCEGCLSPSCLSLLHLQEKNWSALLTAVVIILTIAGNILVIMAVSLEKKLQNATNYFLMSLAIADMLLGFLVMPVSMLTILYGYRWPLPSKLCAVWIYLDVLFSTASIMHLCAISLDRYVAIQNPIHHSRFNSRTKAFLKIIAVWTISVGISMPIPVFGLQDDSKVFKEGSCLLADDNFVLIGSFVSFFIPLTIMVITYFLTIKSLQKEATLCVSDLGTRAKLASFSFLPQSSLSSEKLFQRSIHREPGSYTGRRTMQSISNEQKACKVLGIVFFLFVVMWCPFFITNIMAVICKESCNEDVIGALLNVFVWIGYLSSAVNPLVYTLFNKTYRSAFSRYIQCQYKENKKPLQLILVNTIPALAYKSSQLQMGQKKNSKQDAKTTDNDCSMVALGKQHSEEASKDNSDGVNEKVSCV
T1 sequence (P28221 whole entry): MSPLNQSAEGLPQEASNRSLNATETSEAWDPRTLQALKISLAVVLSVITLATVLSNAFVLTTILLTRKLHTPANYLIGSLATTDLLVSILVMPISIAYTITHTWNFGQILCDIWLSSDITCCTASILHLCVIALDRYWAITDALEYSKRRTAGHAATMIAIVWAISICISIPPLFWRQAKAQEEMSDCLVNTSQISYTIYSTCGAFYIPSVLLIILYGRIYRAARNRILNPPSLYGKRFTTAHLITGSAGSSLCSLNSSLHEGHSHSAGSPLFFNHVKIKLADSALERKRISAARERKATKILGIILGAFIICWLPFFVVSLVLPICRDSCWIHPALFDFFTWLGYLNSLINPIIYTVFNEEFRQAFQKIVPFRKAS
T3 sequence (P35367 whole entry): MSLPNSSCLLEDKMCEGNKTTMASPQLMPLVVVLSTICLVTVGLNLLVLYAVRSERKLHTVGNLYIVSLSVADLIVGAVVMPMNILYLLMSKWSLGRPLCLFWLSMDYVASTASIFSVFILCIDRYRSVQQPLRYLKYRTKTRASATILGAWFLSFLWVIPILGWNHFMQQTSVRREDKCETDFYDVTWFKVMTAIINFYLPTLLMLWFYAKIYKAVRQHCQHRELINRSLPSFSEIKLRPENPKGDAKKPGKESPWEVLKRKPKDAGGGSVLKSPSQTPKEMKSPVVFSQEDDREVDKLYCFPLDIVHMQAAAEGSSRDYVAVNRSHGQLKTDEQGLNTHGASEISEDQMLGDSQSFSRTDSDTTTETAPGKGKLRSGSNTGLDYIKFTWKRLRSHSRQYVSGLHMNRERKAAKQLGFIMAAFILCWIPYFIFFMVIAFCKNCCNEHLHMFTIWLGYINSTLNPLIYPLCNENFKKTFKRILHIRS
Sequence of human serotonin transporter (SERT) (P31645 whole entry): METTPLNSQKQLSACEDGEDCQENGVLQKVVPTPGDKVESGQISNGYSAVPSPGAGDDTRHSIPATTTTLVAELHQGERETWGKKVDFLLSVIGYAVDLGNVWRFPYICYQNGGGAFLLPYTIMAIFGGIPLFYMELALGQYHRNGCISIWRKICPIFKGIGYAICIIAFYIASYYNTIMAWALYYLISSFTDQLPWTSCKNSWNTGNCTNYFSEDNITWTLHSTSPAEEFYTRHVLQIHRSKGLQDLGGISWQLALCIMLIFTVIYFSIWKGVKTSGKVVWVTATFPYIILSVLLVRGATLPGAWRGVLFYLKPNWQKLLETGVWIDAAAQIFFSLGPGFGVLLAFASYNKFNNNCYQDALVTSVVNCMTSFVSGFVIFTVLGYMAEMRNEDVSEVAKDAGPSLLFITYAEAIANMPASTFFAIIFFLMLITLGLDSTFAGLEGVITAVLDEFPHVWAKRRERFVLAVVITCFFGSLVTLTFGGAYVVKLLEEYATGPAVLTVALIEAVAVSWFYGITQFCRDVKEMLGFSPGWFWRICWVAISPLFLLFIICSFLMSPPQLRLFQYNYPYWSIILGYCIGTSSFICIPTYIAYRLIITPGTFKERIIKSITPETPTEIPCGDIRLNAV
T6 sequence (P08913 whole entry): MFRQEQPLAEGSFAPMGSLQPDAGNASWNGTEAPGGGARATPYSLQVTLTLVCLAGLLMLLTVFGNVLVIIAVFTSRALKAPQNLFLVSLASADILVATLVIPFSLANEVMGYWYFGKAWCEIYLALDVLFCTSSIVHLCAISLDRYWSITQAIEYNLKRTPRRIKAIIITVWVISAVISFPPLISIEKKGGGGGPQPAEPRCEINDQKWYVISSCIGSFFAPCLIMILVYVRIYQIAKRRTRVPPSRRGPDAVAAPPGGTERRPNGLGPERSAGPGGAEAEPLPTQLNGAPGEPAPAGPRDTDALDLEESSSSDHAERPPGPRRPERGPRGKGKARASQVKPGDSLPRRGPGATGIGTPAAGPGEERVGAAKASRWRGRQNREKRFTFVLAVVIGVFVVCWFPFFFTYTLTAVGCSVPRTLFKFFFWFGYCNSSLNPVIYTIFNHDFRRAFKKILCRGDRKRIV
Sequence of human dopamine transporter (DAT) (Q01959 whole entry): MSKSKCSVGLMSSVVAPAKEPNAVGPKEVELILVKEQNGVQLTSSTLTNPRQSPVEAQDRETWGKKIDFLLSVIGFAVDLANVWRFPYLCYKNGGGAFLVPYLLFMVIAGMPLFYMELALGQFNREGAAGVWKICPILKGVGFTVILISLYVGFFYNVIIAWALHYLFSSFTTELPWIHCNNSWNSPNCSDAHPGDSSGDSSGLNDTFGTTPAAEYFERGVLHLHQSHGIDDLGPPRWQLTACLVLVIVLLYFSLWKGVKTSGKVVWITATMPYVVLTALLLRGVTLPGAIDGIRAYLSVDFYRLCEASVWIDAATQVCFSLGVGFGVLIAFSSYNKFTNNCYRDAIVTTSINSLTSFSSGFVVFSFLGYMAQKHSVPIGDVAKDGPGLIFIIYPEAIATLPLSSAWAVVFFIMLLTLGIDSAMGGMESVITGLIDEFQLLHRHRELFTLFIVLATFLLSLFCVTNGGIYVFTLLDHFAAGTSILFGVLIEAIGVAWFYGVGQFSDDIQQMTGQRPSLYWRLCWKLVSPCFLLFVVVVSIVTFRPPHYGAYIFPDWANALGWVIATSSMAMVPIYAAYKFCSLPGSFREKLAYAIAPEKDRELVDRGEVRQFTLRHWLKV

CCCN1CCC[C@H](c2cccc(S(C)(=O)=O)c2)C1 [(+)-OSU6162, (3R)-3-[3-(methylsulfonyl)phenyl]-1-propylpiperidine]
Eff (%) (human 5-HT1D receptor): 28%
EC50 [1]: 31.6 µM
Eff (%) [1]: 84%
Eff (%) (human H1 receptor): 3%
Eff (%) (human M4 receptor): 4%
Eff (%) (human alpha1B receptor): 10%
Eff (%) (human alpha2A receptor): 5%
Inh % [2]: 38%
EC50 (human 5-HT2A receptors [3]): 2e-06 M
PI Hydrolysis Eff (%) (human 5-HT2A receptors [3]): 82 ± 4%
Inh % [4]: 5%
EC50 (human 5-HT2A receptors [5]; [6]): 1.58e-06 M
R-SAT Eff(%) (human 5-HT2A receptors [5]; Table 1, mean ± SEM): 139 ± 14%
EC50 (human 5-HT2A receptors [5]; [7]): 1.58e-06 M
Eff (%) (human 5-HT2A receptors [5]; Table 3, 5-HT2A): 139%
potency at 5-HT2A receptors compared with D2 receptors (human 5-HT2A receptors [5]): more potent at 5-HT2A than D2 receptors
Emax at 50 µM (D2 receptors; read-out: Eff (%), response at 50 μM): 77%
Emax at 50 µM (D2 receptors; read-out: R-SAT Eff(%), response at 50 μM): 77%

CCCN1CCC[C@@H](c2cccc(S(C)(=O)=O)c2)C1 [(−)-OSU6162, (3S)-3-[3-(methylsulfonyl)phenyl]-1-propylpiperidine]
EC50 (human 5-HT1D receptor; negative logarithm of EC50 in molar): 5.01 µM
Eff (%) (human 5-HT1D receptor): 132%
EC50 [1]: 7.94 µM
Eff (%) [1]: 68%
Eff (%) (human H1 receptor): 2%
Eff (%) (human M4 receptor): 2%
Eff (%) (human alpha1B receptor): −1%
Eff (%) (human alpha2A receptor): 2%
Inh % [2]: 26%
EC50 (human 5-HT2A receptors [3]): 1.26e-06 M
PI Hydrolysis Eff (%) (human 5-HT2A receptors [3]): 65 ± 4%
Inh % [4]: 6%
EC50 (human 5-HT2A receptors [5]; [6]): 6.31e-07 M
R-SAT Eff(%) (human 5-HT2A receptors [5]; Table 1, mean ± SEM): 113 ± 18%
EC50 (human 5-HT2A receptors [5]; [7]): 6.31e-07 M
Eff (%) (human 5-HT2A receptors [5]; Table 3, 5-HT2A): 113%
potency at 5-HT2A receptors compared with D2 receptors (human 5-HT2A receptors [5]): equipotent at D2 and 5-HT2A receptors
R-SAT pEC50 (D2 receptors; Table 2, negative logarithm of EC50 in molar, NIH3T3 cells, mean ± SEM): 6.1 ± 0.3
EC50 (D2 receptors; Table 2, negative logarithm of EC50 in molar, NIH3T3 cells, mean ± SEM, read-out: R-SAT pEC50 (converted)): 794 nM
R-SAT Eff(%) (D2 receptors; Table 2, mean ± SEM): 30%
R-SAT Eff(%) (D2 receptors; Table 2, mean ± SEM, listed as (−)-OSU-6162): 36 ± 3%
EC50 (D2 receptors; Table 3, D2, negative logarithm of EC50 in molar, read-out: pEC50 (converted)): 794 nM
Eff (%) (D2 receptors; Table 3, D2, percent response of reference Pergolide): 36%
